This note sets out measurements from ChEMBL document CHEMBL1212714, “Dentigerumycin: a bacterial mediator of an ant-fungus symbiosis” (2009).

Assay [1] has as its system ant fungal cultivar CC011120-4 (mutualistic fungus). Nature of the assay: Antifungal activity against ant fungal cultivar CC011120-4 assessed as growth inhibition at 5 mg/ml by plate antifungal assay.
In a further assay the test system is Escovopsis. Nature of the assay: Antifungal activity against Escovopsis CC011120-4 assessed as growth inhibition at 5 mg/ml by plate antifungal assay. The class given is functional.
In assay [2] the test system is Candida albicans. Nature of the assay: Antifungal activity against wild type Candida albicans at 37degC after 48 hrs by liquid culture assay. The class given is functional.
Assay [3] in a line: Antifungal activity against Escovopsis at 37degC after 48 hrs by liquid culture assay. In kind it is functional.
Assay [4] relates to Candida albicans. Nature of the assay: Antifungal activity against Candida albicans ATCC 10231 at 37degC after 48 hrs by liquid culture assay. The class given is functional. The settings on record: ATCC 10231, 48 h.
Assay [5] relates to Candida albicans. Briefly: Antifungal activity against Candida albicans ATCC 200955 at 37degC after 48 hrs by liquid culture assay. In kind it is functional. The settings on record: ATCC 200955, 48 h.

Converted amounts (≈) assume the structure as drawn. The source made the active and inactive calls. No cut-off for these calls is given here.

With `CCC[C@H]1CC[C@](O)([C@](C)(O)C(=O)N[C@@H]2C(=O)N3NCCC[C@@H]3C(=O)N(O)[C@@H](C)C(=O)N3NCCC[C@@H]3C(=O)N3NC[C@@H](O)C[C@H]3C(=O)N[C@@H](C)C(=O)O[C@H]2C(C)C)O[C@@H]1CC` [DENTIGERUMYCIN], the “growth inhibition (GI)” value in assay [1] is “inactive”. Further, in the assay on Escovopsis, the “growth inhibition (GI)” value is “Active”. Besides, the minimal inhibitory concentration (MIC) was found to be 1.1 µM (≈ 0.97 µg/mL) against Candida albicans [2], 2.8 µM (≈ 2.47 µg/mL) in assay [3], 1.1 µM (≈ 0.97 µg/mL) in the assay on Candida albicans [4] and 1.1 µM (≈ 0.97 µg/mL) against Candida albicans [5].
